These results are taken from patent US6528536B1, “Fungicidal mixtures” (BASF Aktiengesellschaft, priority 1997, dated 2003).

The assay concerns powdery mildew of wheat (Erysiphe graminis forma specialis tritici). Description: Activity against powdery mildew of wheat (protective spray on wheat seedlings, greenhouse). Conditions: evaluated after 7 days. Type of assay: in vivo. An excerpt:
The active ingredients, separately or together, were formulated as a 10% emulsion in a mixture of 70% by weight of cyclohexanone, 20% by weight of Nekanil® LN (Lutensol® AP6, wetting agent having emulsifying and dispersing action, based on ethoxylated alkylphenols) and 10% by weight of Emulphor® EL (Emulan® EL, emulsifier based on ethoxylated fatty alcohols) and diluted with water to give the desired concentration.
Leaves of wheat seedlings cv. “Fr{umlaut over (u )}hgold” which had been grown in pots were sprayed to runoff point with an aqueous preparation of active ingredient which had been made from a stock solution comprising 10% of active compound, 63% of cyclohexanone and 27% of emulsifier, and, 24 hours after the spray coating had dried on, were dusted with spores of powdery mildew of wheat (Erysiphe graminis forma specialis tritici). […] After 7 days, the extent of mildew development was determined visually in % infection of the total leaf area.
Evaluation was carried out by determining the infected leaf areas in percent. […] The efficacy (E) was calculated as follows using Abbot's formula: […]
The expected degrees of action of the mixtures of the active ingredients were determined using Colby's formula [R. S. Colby, Weeds 15, (1967) 20-22] and compared with the observed degrees of action. […]

Turning to `CO/N=C(/C(=O)OC)c1ccccc1COc1ccccc1C` [Ia], the “Efficacy in % of the untreated contol” value is 0% (0.3 ppm active ingredient in the spray liquor) and 0% (0.6 ppm active ingredient in the spray liquor).
